Measurements from the NIST ThermoML archive (doi:10.1016/j.jct.2013.05.051).

Assay: xn = mol fraction of the nth substance listed
Conditions: Liquid, Vibrating tube method

CCCCCCCO [heptan-1-ol] + CCCCCCC
mass density [kg/m3]
Conditions	x1 = 0.1493	x1 = 0.3215	x1 = 0.5226	x1 = 0.6698	x1 = 0.8469	x1 = 1
298.15 K, 100 kPa	699.7	723.4	751.3	772.6	804.4	818.7
298.15 K, 1000 kPa	700.6	724.2	752.1	773.3	805.1	819.3
298.15 K, 5000 kPa	704.1	727.6	755.2	776.2	807.8	821.9
298.15 K, 10000 kPa	708.4	731.6	759	779.7	811.1	824.9
298.15 K, 15000 kPa	712.4	735.4	762.6	783.2	814.2	828
298.15 K, 20000 kPa	716.2	739.1	765.9	786.3	817.2	830.8
298.15 K, 25000 kPa	719.8	742.4	769.1	789.4	820	833.5
298.15 K, 30000 kPa	723.3	745.8	772.3	792.5	822.8	836.3
298.15 K, 35000 kPa	726.5	748.9	775.3	795.3	825.4	838.8
298.15 K, 40000 kPa	729.7	751.9	778.2	798	828.1	841.3
298.15 K, 45000 kPa	732.8	754.9	781	800.7	830.6	843.8
298.15 K, 50000 kPa	735.6	757.7	783.6	803.3	833	846.2
298.15 K, 55000 kPa	738.5	760.5	786.3	805.9	835.4	848.5
298.15 K, 60000 kPa	741.2	763.2	788.8	808.3	837.7	850.8
298.15 K, 65000 kPa	743.9	765.7	791.3	810.7	839.9	853
298.15 K, 70000 kPa	746.5	768.2	793.7	813.1	842.2	855.2
298.15 K, 80000 kPa	751.4	773	798.4	817.6	846.4	859.4
298.15 K, 90000 kPa	756.2	777.7	802.8	821.9	850.6	863.5
298.15 K, 100000 kPa	760.6	782	807	826	854.5	867.3
298.15 K, 110000 kPa	764.9	786.1	811.2	830	858.4	871.1
298.15 K, 120000 kPa	768.9	790.1	815	833.8	861.9	874.6
298.15 K, 130000 kPa	772.8	793.9	818.7	837.4	865.5	878.1
298.15 K, 140000 kPa	776.5	797.6	822.3	840.9	868.9	881.5
313.15 K, 100 kPa	686.8	711	739.3	760.9	793.4	808
313.15 K, 1000 kPa	687.7	711.8	740.1	761.7	794	808.6
313.15 K, 5000 kPa	691.7	715.5	743.5	764.9	796.9	811.4
313.15 K, 10000 kPa	696.4	719.9	747.6	768.7	800.4	814.7
313.15 K, 15000 kPa	700.8	724.1	751.5	772.3	803.8	817.9
313.15 K, 20000 kPa	704.9	728	755.2	775.8	807	821
313.15 K, 25000 kPa	708.6	731.5	758.4	778.9	809.9	823.8
313.15 K, 30000 kPa	712.6	735.3	762	782.3	813	826.8
313.15 K, 35000 kPa	716.1	738.7	765.2	785.4	815.9	829.5
313.15 K, 40000 kPa	719.4	741.9	768.2	788.3	818.5	832.1
313.15 K, 45000 kPa	722.7	745	771.2	791.1	821.2	834.7
